In ChEMBL document CHEMBL4831516, “Development of Membrane-Active Honokiol/Magnolol Amphiphiles as Potent Antibacterial Agents against Methicillin-Resistant Staphylococcus aureus (MRSA)” (J Med Chem, 2021):

test system: not listed separately; experiment: Hemolytic activity in sheep RBC assessed as hemolysis incubated for 1 hr; format: ADME, cell-based, Ovis aries, Erythrocyte; conditions: sheep red blood cells (erythrocytes)

| Compound | HC50 at 1 h |
| --- | --- |
| C=CCc1ccc(OCCCC[N+](C)(C)CC(=O)NCC)c(-c2ccc(OCCCC[N+](C)(C)CC(=O)NCC)c(CC=C)c2)c1.[Br-].[Br-] | 883 µg/mL |
| C=CCc1ccc(OCC[N+](C)(C)CC(=O)NCCCCCC)c(-c2ccc(OCC[N+](C)(C)CC(=O)NCCCCCC)c(CC=C)c2)c1.[Br-].[Br-] | 934 µg/mL |

test system: Escherichia coli; experiment: Antibacterial activity against Escherichia coli ATCC25922 assessed as inhibition of visible growth incubated for 16 to 18 hrs by CLSI method; format: functional; conditions: time 16-18 hrs, read-out: MIC100

| Compound | MIC |
| --- | --- |
| C=CCc1ccc(OCCCC[N+](C)(C)CC(=O)NCC)c(-c2ccc(OCCCC[N+](C)(C)CC(=O)NCC)c(CC=C)c2)c1.[Br-].[Br-] | 4 µg/mL |
| C=CCc1ccc(OCC[N+](C)(C)CC(=O)NCCCCCC)c(-c2ccc(OCC[N+](C)(C)CC(=O)NCCCCCC)c(CC=C)c2)c1.[Br-].[Br-] | 32 µg/mL |

test system: Staphylococcus aureus; experiment: Antibacterial activity against methicillin-resistant Staphylococcus aureus clinical isolate M-17 assessed as inhibition of visible growth incubated for 16 to 18 hrs by CLSI method; format: functional; conditions: time 16-18 hrs, read-out: MIC100

| Compound | MIC |
| --- | --- |
| C=CCc1ccc(OCCCC[N+](C)(C)CC(=O)NCC)c(-c2ccc(OCCCC[N+](C)(C)CC(=O)NCC)c(CC=C)c2)c1.[Br-].[Br-] | 8 µg/mL |
| C=CCc1ccc(OCC[N+](C)(C)CC(=O)NCCCCCC)c(-c2ccc(OCC[N+](C)(C)CC(=O)NCCCCCC)c(CC=C)c2)c1.[Br-].[Br-] | 4 µg/mL |

test system: not listed separately; experiment: Selectivity index, HC50 for hemolytic activity in sheep RBC to MIC for antibacterial activity against Staphylococcus aureus ATCC29213; format: toxicity; conditions: sheep red blood cells (erythrocytes), read-out: Selectivity Index

| Compound | selectivity ratio |
| --- | --- |
| C=CCc1ccc(OCCCC[N+](C)(C)CC(=O)NCC)c(-c2ccc(OCCCC[N+](C)(C)CC(=O)NCC)c(CC=C)c2)c1.[Br-].[Br-] | 442 |
| C=CCc1ccc(OCC[N+](C)(C)CC(=O)NCCCCCC)c(-c2ccc(OCC[N+](C)(C)CC(=O)NCCCCCC)c(CC=C)c2)c1.[Br-].[Br-] | 117 |

test system: Staphylococcus aureus; experiment: Antibacterial activity against methicillin-resistant Staphylococcus aureus clinical isolate M-18 assessed as inhibition of visible growth incubated for 16 to 18 hrs by CLSI method; format: functional; conditions: time 16-18 hrs, read-out: MIC100

| Compound | MIC |
| --- | --- |
| C=CCc1ccc(OCCCC[N+](C)(C)CC(=O)NCC)c(-c2ccc(OCCCC[N+](C)(C)CC(=O)NCC)c(CC=C)c2)c1.[Br-].[Br-] | 8 µg/mL |
| C=CCc1ccc(OCC[N+](C)(C)CC(=O)NCCCCCC)c(-c2ccc(OCC[N+](C)(C)CC(=O)NCCCCCC)c(CC=C)c2)c1.[Br-].[Br-] | 8 µg/mL |

test system: Staphylococcus aureus; experiment: Antibacterial activity against methicillin-resistant Staphylococcus aureus clinical isolate M-12 assessed as inhibition of visible growth incubated for 16 to 18 hrs by CLSI method; format: functional; conditions: time 16-18 hrs, read-out: MIC100

| Compound | MIC |
| --- | --- |
| C=CCc1ccc(OCCCC[N+](C)(C)CC(=O)NCC)c(-c2ccc(OCCCC[N+](C)(C)CC(=O)NCC)c(CC=C)c2)c1.[Br-].[Br-] | 8 µg/mL |
| C=CCc1ccc(OCC[N+](C)(C)CC(=O)NCCCCCC)c(-c2ccc(OCC[N+](C)(C)CC(=O)NCCCCCC)c(CC=C)c2)c1.[Br-].[Br-] | 8 µg/mL |

test system: Staphylococcus aureus; experiment: Antibacterial activity against methicillin-resistant Staphylococcus aureus clinical isolate M-13 assessed as inhibition of visible growth incubated for 16 to 18 hrs by CLSI method; format: functional; conditions: time 16-18 hrs, read-out: MIC100

| Compound | MIC |
| --- | --- |
| C=CCc1ccc(OCCCC[N+](C)(C)CC(=O)NCC)c(-c2ccc(OCCCC[N+](C)(C)CC(=O)NCC)c(CC=C)c2)c1.[Br-].[Br-] | 8 µg/mL |
| C=CCc1ccc(OCC[N+](C)(C)CC(=O)NCCCCCC)c(-c2ccc(OCC[N+](C)(C)CC(=O)NCCCCCC)c(CC=C)c2)c1.[Br-].[Br-] | 8 µg/mL |

test system: Staphylococcus aureus; experiment: Antibacterial activity against methicillin-resistant Staphylococcus aureus clinical isolate M-20 assessed as inhibition of visible growth incubated for 16 to 18 hrs by CLSI method; format: functional; conditions: time 16-18 hrs, read-out: MIC100

| Compound | MIC |
| --- | --- |
| C=CCc1ccc(OCCCC[N+](C)(C)CC(=O)NCC)c(-c2ccc(OCCCC[N+](C)(C)CC(=O)NCC)c(CC=C)c2)c1.[Br-].[Br-] | 8 µg/mL |
| C=CCc1ccc(OCC[N+](C)(C)CC(=O)NCCCCCC)c(-c2ccc(OCC[N+](C)(C)CC(=O)NCCCCCC)c(CC=C)c2)c1.[Br-].[Br-] | 4 µg/mL |

test system: Staphylococcus aureus; experiment: Antibacterial activity against methicillin-resistant Staphylococcus aureus clinical isolate M-15 assessed as inhibition of visible growth incubated for 16 to 18 hrs by CLSI method; format: functional; conditions: time 16-18 hrs, read-out: MIC100

| Compound | MIC |
| --- | --- |
| C=CCc1ccc(OCCCC[N+](C)(C)CC(=O)NCC)c(-c2ccc(OCCCC[N+](C)(C)CC(=O)NCC)c(CC=C)c2)c1.[Br-].[Br-] | 8 µg/mL |
| C=CCc1ccc(OCC[N+](C)(C)CC(=O)NCCCCCC)c(-c2ccc(OCC[N+](C)(C)CC(=O)NCCCCCC)c(CC=C)c2)c1.[Br-].[Br-] | 8 µg/mL |

test system: Enterococcus faecalis; experiment: Antibacterial activity against Enterococcus faecalis ATCC29212 assessed as inhibition of visible growth incubated for 16 to 18 hrs by CLSI method; format: functional; conditions: time 16-18 hrs, read-out: MIC100

| Compound | MIC |
| --- | --- |
| C=CCc1ccc(OCCCC[N+](C)(C)CC(=O)NCC)c(-c2ccc(OCCCC[N+](C)(C)CC(=O)NCC)c(CC=C)c2)c1.[Br-].[Br-] | 2 µg/mL |
| C=CCc1ccc(OCC[N+](C)(C)CC(=O)NCCCCCC)c(-c2ccc(OCC[N+](C)(C)CC(=O)NCCCCCC)c(CC=C)c2)c1.[Br-].[Br-] | 4 µg/mL |

test system: Bacillus subtilis; experiment: Antibacterial activity against Bacillus subtilis assessed as inhibition of visible growth incubated for 16 to 18 hrs by CLSI method; format: functional; conditions: time 16-18 hrs, read-out: MIC100

| Compound | MIC |
| --- | --- |
| C=CCc1ccc(OCCCC[N+](C)(C)CC(=O)NCC)c(-c2ccc(OCCCC[N+](C)(C)CC(=O)NCC)c(CC=C)c2)c1.[Br-].[Br-] | 4 µg/mL |
| C=CCc1ccc(OCC[N+](C)(C)CC(=O)NCCCCCC)c(-c2ccc(OCC[N+](C)(C)CC(=O)NCCCCCC)c(CC=C)c2)c1.[Br-].[Br-] | 4 µg/mL |

test system: Salmonella enterica; experiment: Antibacterial activity against Salmonella enterica 349812 assessed as inhibition of visible growth incubated for 16 to 18 hrs by CLSI method; format: functional; conditions: time 16-18 hrs, read-out: MIC100

| Compound | MIC |
| --- | --- |
| C=CCc1ccc(OCCCC[N+](C)(C)CC(=O)NCC)c(-c2ccc(OCCCC[N+](C)(C)CC(=O)NCC)c(CC=C)c2)c1.[Br-].[Br-] | 8 µg/mL |
| C=CCc1ccc(OCC[N+](C)(C)CC(=O)NCCCCCC)c(-c2ccc(OCC[N+](C)(C)CC(=O)NCCCCCC)c(CC=C)c2)c1.[Br-].[Br-] | 32 µg/mL |

test system: Staphylococcus aureus; experiment: Antibacterial activity against Staphylococcus aureus ATCC29213 assessed as inhibition of visible growth incubated for 16 to 18 hrs by CLSI method; format: functional; conditions: time 16-18 hrs, read-out: MIC100

| Compound | MIC |
| --- | --- |
| C=CCc1ccc(OCCCC[N+](C)(C)CC(=O)NCC)c(-c2ccc(OCCCC[N+](C)(C)CC(=O)NCC)c(CC=C)c2)c1.[Br-].[Br-] | 2 µg/mL |
| C=CCc1ccc(OCC[N+](C)(C)CC(=O)NCCCCCC)c(-c2ccc(OCC[N+](C)(C)CC(=O)NCCCCCC)c(CC=C)c2)c1.[Br-].[Br-] | 8 µg/mL |

test system: Staphylococcus aureus; experiment: Antibacterial activity against methicillin-resistant Staphylococcus aureus clinical isolate M-14 assessed as inhibition of visible growth incubated for 16 to 18 hrs by CLSI method; format: functional; conditions: time 16-18 hrs, read-out: MIC100

| Compound | MIC |
| --- | --- |
| C=CCc1ccc(OCCCC[N+](C)(C)CC(=O)NCC)c(-c2ccc(OCCCC[N+](C)(C)CC(=O)NCC)c(CC=C)c2)c1.[Br-].[Br-] | 8 µg/mL |
| C=CCc1ccc(OCC[N+](C)(C)CC(=O)NCCCCCC)c(-c2ccc(OCC[N+](C)(C)CC(=O)NCCCCCC)c(CC=C)c2)c1.[Br-].[Br-] | 8 µg/mL |

test system: Stenotrophomonas maltophilia; experiment: Antibacterial activity against Stenotrophomonas maltophilia assessed as inhibition of visible growth incubated for 16 to 18 hrs by CLSI method; format: functional; conditions: time 16-18 hrs, read-out: MIC100

| Compound | MIC |
| --- | --- |
| C=CCc1ccc(OCCCC[N+](C)(C)CC(=O)NCC)c(-c2ccc(OCCCC[N+](C)(C)CC(=O)NCC)c(CC=C)c2)c1.[Br-].[Br-] | 8 µg/mL |
| C=CCc1ccc(OCC[N+](C)(C)CC(=O)NCCCCCC)c(-c2ccc(OCC[N+](C)(C)CC(=O)NCCCCCC)c(CC=C)c2)c1.[Br-].[Br-] | 32 µg/mL |

test system: Staphylococcus aureus; experiment: Antibacterial activity against methicillin-resistant Staphylococcus aureus clinical isolate M-16 assessed as inhibition of visible growth incubated for 16 to 18 hrs by CLSI method; format: functional; conditions: time 16-18 hrs, read-out: MIC100

| Compound | MIC |
| --- | --- |
| C=CCc1ccc(OCCCC[N+](C)(C)CC(=O)NCC)c(-c2ccc(OCCCC[N+](C)(C)CC(=O)NCC)c(CC=C)c2)c1.[Br-].[Br-] | 16 µg/mL |
| C=CCc1ccc(OCC[N+](C)(C)CC(=O)NCCCCCC)c(-c2ccc(OCC[N+](C)(C)CC(=O)NCCCCCC)c(CC=C)c2)c1.[Br-].[Br-] | 16 µg/mL |

test system: Micrococcus luteus; experiment: Antibacterial activity against Micrococcus luteus assessed as inhibition of visible growth incubated for 16 to 18 hrs by CLSI method; format: functional; conditions: time 16-18 hrs, read-out: MIC100

| Compound | MIC |
| --- | --- |
| C=CCc1ccc(OCCCC[N+](C)(C)CC(=O)NCC)c(-c2ccc(OCCCC[N+](C)(C)CC(=O)NCC)c(CC=C)c2)c1.[Br-].[Br-] | 8 µg/mL |
| C=CCc1ccc(OCC[N+](C)(C)CC(=O)NCCCCCC)c(-c2ccc(OCC[N+](C)(C)CC(=O)NCCCCCC)c(CC=C)c2)c1.[Br-].[Br-] | 8 µg/mL |

test system: Staphylococcus aureus; experiment: Antibacterial activity against methicillin-resistant Staphylococcus aureus clinical isolate M-19 assessed as inhibition of visible growth incubated for 16 to 18 hrs by CLSI method; format: functional; conditions: time 16-18 hrs, read-out: MIC100

| Compound | MIC |
| --- | --- |
| C=CCc1ccc(OCCCC[N+](C)(C)CC(=O)NCC)c(-c2ccc(OCCCC[N+](C)(C)CC(=O)NCC)c(CC=C)c2)c1.[Br-].[Br-] | 8 µg/mL |
| C=CCc1ccc(OCC[N+](C)(C)CC(=O)NCCCCCC)c(-c2ccc(OCC[N+](C)(C)CC(=O)NCCCCCC)c(CC=C)c2)c1.[Br-].[Br-] | 8 µg/mL |

test system: Salmonella enterica; experiment: Antibacterial activity against Salmonella enterica 8389 assessed as inhibition of visible growth incubated for 16 to 18 hrs by CLSI method; format: functional; conditions: time 16-18 hrs, read-out: MIC100

| Compound | MIC |
| --- | --- |
| C=CCc1ccc(OCCCC[N+](C)(C)CC(=O)NCC)c(-c2ccc(OCCCC[N+](C)(C)CC(=O)NCC)c(CC=C)c2)c1.[Br-].[Br-] | 32 µg/mL |
| C=CCc1ccc(OCC[N+](C)(C)CC(=O)NCCCCCC)c(-c2ccc(OCC[N+](C)(C)CC(=O)NCCCCCC)c(CC=C)c2)c1.[Br-].[Br-] | 32 µg/mL |

test system: Staphylococcus aureus; experiment: Antibacterial activity against methicillin-resistant Staphylococcus aureus clinical isolate M-11 assessed as inhibition of visible growth incubated for 16 to 18 hrs by CLSI method; format: functional; conditions: time 16-18 hrs, read-out: MIC100

| Compound | MIC |
| --- | --- |
| C=CCc1ccc(OCCCC[N+](C)(C)CC(=O)NCC)c(-c2ccc(OCCCC[N+](C)(C)CC(=O)NCC)c(CC=C)c2)c1.[Br-].[Br-] | 16 µg/mL |
| C=CCc1ccc(OCC[N+](C)(C)CC(=O)NCCCCCC)c(-c2ccc(OCC[N+](C)(C)CC(=O)NCCCCCC)c(CC=C)c2)c1.[Br-].[Br-] | 8 µg/mL |
